US6444643B1, “Methods of using inhibitors of cyclophilin rotamase activity to affect neurological activity” (priority 1995, dated 2002)
Where two headings read alike, the source gives them in different places. Numbered stars: 1 amine (or outer) side, 2 acyl side, 3 side chain; on linkers, the order of the positions; unused ones are H or OH. Square brackets hold non-standard residues; d marks the D form. Peptide text beside a SMILES is read from it. MeBmt = C/C=C/C[C@@H](C)[C@@H](O)[C@H](NC)C(=O)O; X1 = C[C@@H](O)[C@@](C)(C(=O)[*:2])N(C)[*:1]; NMeL = CN[C@@H](CC(C)C)C(=O)O; NMeV = CN[C@H](C(=O)O)C(C)C; NMeAbu = CC[C@H](NC)C(=O)O; Abu = CC[C@H](N)C(=O)O; Dha = C=C(N)C(=O)O; Sar = CNCC(=O)O

Assays:
[1] = system: chick dorsal root ganglia explants; assay: Chick dorsal root ganglion cultures and neurite outgrowth; format: cell-based; details: for Neurotrophic Potency, Neurite Outgrowth in Chick DRG: relative to cyclosporin A, 48 hours after drug treatment
cyclophilin A = cyclophilin A (Homo sapiens, UniProt P62937); assay: Inhibition of peptidyl-prolyl isomerase (rotamase) activity of cyclophilin, chymotrypsin-coupled assay; format: biochemical
cyclophilin A, sequence (P62937 whole entry, species assumed): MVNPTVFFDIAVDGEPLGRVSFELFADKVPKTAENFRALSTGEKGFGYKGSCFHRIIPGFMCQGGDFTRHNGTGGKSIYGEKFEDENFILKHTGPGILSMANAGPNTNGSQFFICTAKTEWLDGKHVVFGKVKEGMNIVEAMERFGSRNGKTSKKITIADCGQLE
Method: We evaluated the potencies of drugs in binding to cyclophilin A by examining inhibition of peptidyl prolyl-isomerase activity (Table 1).
The inhibition of this reaction caused by the addition of different concentrations of inhibitor is determined, and the data is analyzed as a change in first-order rate constant as a function of inhibitor concentration to yield the apparent Ki values. The absorbance at 390 nm versus time is monitored for 90 sec using a spectrophotometer and the rate constants are determined from the absorbance versus. time data files.

[2] = system: PC12 cells and sensory neurons, namely dorsal root ganglion cells (DRGS); details: picomolar concentrations; cited from earlier work
[3] = apparent Ki, substrate N-succinyl-Ala-Ala-Pro-Phe-p-nitroanilide, read-out: Ki, cyclophilin inhibition

Compound: CCCC[C@@H](C)[C@@H](O)[C@H]1C(=O)N[C@@H](CC)C(=O)N(C)CC(=O)N(C)[C@@H](CC(C)C)C(=O)N[C@@H](C(C)C)C(=O)N(C)[C@@H](CC(C)C)C(=O)N[C@@H](C)C(=O)N[C@H](C)C(=O)N(C)[C@@H](CC(C)C)C(=O)N(C)[C@@H](CC(C)C)C(=O)N(C)[C@@H](C(C)C)C(=O)N1C [Example 2, dihydro-CsA]
- Neurotrophic Potency, Neurite Outgrowth in Chick DRG [1]: +
- Ki (cyclophilin A; [3]): 100 nM

Compound: C=C1NC(=O)[C@H](C)NC(=O)[C@H](CC(C)C)N(C)C(=O)[C@H](C(C)C)NC(=O)[C@H](CC(C)C)N(C)C(=O)CN(C)C(=O)[C@H](CC)NC(=O)[C@H]([C@H](O)[C@H](C)C/C=C/C)N(C)C(=O)[C@H](C(C)C)N(C)C(=O)[C@H](CC(C)C)N(C)C(=O)[C@H](CC(C)C)N(C)C1=O [Example 3, [dehydro-Ala]^8-CsA] (cyclo(A[Dha][NMeL][NMeL][NMeV][MeBmt][Abu][Sar][NMeL]V[NMeL]))
- Neurotrophic Potency, Neurite Outgrowth in Chick DRG [1]: +
- Ki (cyclophilin A; [3]): 75 nM

Compound: C/C=C/C[C@@H](C)[C@@H](O)[C@H]1C(=O)N[C@@H](CC)C(=O)N(C)CC(=O)N(C)[C@@H](C(C)C)C(=O)N[C@@H](C(C)C)C(=O)N(C)[C@@H](CC(C)C)C(=O)N[C@@H](C)C(=O)N[C@H](C)C(=O)N(C)[C@@H](CC(C)C)C(=O)N(C)[C@@H](CC(C)C)C(=O)N(C)[C@@H](C(C)C)C(=O)N1C [Example 4, [MeVal]^4-CsA] (cyclo([MeBmt][Abu][Sar][NMeV]V[NMeL]A[dA][NMeL][NMeL][NMeV]))
- Neurotrophic Potency, Neurite Outgrowth in Chick DRG [1]: +++
- Ki (cyclophilin A): 10 nM

Compound: C/C=C/C[C@@H](C)[C@@H](O)[C@H]1C(=O)N[C@@H](CC)C(=O)N(C)CC(=O)N(C)[C@@H](CC)C(=O)N[C@@H](C(C)C)C(=O)N(C)[C@@H](CC(C)C)C(=O)N[C@@H](C)C(=O)N[C@H](C)C(=O)N(C)[C@@H](CC(C)C)C(=O)N(C)[C@@H](CC(C)C)C(=O)N(C)[C@@H](C(C)C)C(=O)N1C [Example 5, [Me-homoAla]^4-CsA] (cyclo([MeBmt][Abu][Sar][NMeAbu]V[NMeL]A[dA][NMeL][NMeL][NMeV]))
- Neurotrophic Potency, Neurite Outgrowth in Chick DRG [1]: +++

Compound: C/C=C/C[C@@H](C)[C@@H](O)[C@H]1C(=O)N[C@@H](CC)C(=O)N(C)CC(=O)N(C)[C@@](C)([C@@H](C)O)C(=O)N[C@@H](C(C)C)C(=O)N(C)[C@@H](CC(C)C)C(=O)N[C@@H](C)C(=O)N[C@H](C)C(=O)N(C)[C@@H](CC(C)C)C(=O)N(C)[C@@H](CC(C)C)C(=O)N(C)[C@@H](C(C)C)C(=O)N1C [Example 6, [Me-(a-methyl)Thr]^4-CsA] (cyclo([MeBmt][Abu][Sar][X1]V[NMeL]A[dA][NMeL][NMeL][NMeV]))
- Neurotrophic Potency, Neurite Outgrowth in Chick DRG [1]: +++

Compound: cyclosporin A [Example 1, reference compound]
- EC50 ([1]; chick DRG explants, from dose-response curves (FIG. 1), read-out: ED50, the dose at which 50% of the maximal response was elicited (neurite outgrowth)): 50 nM
- Neurotrophic Potency, Neurite Outgrowth in Chick DRG [1]: +++
- neurite outgrowth [2]: stimulates neurite out growth
